Measurements as given in US11603355B2, “Charged ion channel blockers and methods for use” (Nocion Therapeutics, Inc., priority 2019, dated 2023).
Where a name gives a salt, the structure may show the parent alone.

Legend:
[1] = target: T1, NaV1.7 (Homo sapiens, UniProt Q15858); assay: Manual patch clamp, internal block of NaV1.7 current; format: cell-based; conditions: compound in internal solution, HEK293 cells, read-out: Nav1.7 Intracellular Inhibition; for inhibition at 3 µM: % inhibition at 3 μM test concentration; for inhibition at 10 µM: % inhibition at 10 μM test concentration
T1 construct: expressed in transfected cells; host or cells: HEK293 (tetracycline-inducible)
T1 sequence (Q15858 whole entry): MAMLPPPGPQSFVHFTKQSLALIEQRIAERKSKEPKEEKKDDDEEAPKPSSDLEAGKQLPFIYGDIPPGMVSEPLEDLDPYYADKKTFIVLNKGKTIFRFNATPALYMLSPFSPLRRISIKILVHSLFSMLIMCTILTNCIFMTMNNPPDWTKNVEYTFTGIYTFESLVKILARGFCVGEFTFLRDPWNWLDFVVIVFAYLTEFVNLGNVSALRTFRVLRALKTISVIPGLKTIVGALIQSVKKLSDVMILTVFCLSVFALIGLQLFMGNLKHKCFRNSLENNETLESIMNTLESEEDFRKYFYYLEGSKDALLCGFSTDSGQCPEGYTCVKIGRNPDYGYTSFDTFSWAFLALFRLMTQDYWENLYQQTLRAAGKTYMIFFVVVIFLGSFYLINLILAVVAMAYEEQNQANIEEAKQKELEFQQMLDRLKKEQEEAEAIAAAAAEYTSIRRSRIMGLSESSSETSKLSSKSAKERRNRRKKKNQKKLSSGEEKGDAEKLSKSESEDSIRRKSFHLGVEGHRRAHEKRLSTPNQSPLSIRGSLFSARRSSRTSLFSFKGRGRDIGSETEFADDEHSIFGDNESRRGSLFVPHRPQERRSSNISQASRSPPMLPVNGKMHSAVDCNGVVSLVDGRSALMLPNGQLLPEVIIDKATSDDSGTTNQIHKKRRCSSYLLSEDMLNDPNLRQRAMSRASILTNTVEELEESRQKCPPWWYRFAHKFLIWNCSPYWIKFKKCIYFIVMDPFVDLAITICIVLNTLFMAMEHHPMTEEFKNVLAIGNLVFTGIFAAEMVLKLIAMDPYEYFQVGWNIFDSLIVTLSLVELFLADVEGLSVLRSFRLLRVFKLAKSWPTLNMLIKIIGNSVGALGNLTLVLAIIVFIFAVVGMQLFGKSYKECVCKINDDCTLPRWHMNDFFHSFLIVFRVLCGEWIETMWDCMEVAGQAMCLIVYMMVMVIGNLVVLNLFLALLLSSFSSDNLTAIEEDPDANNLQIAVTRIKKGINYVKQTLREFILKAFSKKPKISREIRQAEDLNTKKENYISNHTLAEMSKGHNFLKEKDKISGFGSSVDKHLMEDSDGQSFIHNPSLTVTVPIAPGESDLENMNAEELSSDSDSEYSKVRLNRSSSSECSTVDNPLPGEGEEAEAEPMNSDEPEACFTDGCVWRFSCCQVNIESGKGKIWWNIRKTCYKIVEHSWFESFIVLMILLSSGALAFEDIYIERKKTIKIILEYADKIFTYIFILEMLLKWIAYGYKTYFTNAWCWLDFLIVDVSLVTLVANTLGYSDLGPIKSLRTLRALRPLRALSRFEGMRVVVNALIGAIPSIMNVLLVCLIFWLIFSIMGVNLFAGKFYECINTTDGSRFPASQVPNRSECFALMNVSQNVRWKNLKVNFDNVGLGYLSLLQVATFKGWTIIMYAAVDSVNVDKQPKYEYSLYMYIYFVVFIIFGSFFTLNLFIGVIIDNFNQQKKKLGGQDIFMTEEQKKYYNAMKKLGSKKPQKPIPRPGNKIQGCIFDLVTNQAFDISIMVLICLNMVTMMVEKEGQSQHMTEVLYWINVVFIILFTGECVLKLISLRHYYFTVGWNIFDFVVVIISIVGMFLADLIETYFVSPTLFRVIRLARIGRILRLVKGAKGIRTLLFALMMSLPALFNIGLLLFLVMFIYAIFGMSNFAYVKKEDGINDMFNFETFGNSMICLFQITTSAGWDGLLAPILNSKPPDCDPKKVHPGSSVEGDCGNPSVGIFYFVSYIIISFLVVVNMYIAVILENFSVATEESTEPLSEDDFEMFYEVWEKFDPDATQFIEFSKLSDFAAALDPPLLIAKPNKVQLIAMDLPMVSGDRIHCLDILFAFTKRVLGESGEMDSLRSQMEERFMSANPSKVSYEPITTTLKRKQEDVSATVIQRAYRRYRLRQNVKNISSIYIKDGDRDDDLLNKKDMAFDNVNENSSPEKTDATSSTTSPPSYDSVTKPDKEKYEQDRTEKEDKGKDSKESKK
How it was run: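 Whole-cell recordings at room temperature in tetracycline-induced HEK293 cells, compound in CsCl internal solution (pH 7.2), held at −100 mV with 10 ms steps to −20 mV. Four 30 s 5 Hz trains after 5 min baseline; fraction of peak inward current remaining computed as Itest/Ibaseline.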

[2] = target: T1, NaV1.7; assay: Manual patch clamp, external block of NaV1.7 current; format: cell-based; conditions: % inhibition at 10 μM test concentration, compound in external solution, HEK293 cells, read-out: Nav1.7 Extracellular Inhibition
Method: Representative compounds of the invention were synthesized according to the described methods and tested for the ability to inhibit voltage-gated sodium channels.
NaV1.7 was expressed in HEK293 cells upon induction with tetracycline. Cells were cultured in DMEM containing 10% dialyzed Fetal Bovine Serum (VWR, Radnor, Pa.), 1% Glutamax (VWR, Radnor, Pa.), 1% Penicillin-Streptomycin (VWR, Radnor, Pa.), 100 mg/L Hygromycin (Thermo Fisher Scientific, Waltham, Mass. and 5 mg/L Blasticidin (Alfa Aesar, Haverhill, Mass.). Cells were grown and maintained at 37° C. in a humidified environment containing 10% CO2 in air. Cells were detached from the culture flask for passage and harvested using 0.05% Trypsin-EDTA (Thermo Fisher Scientific, Waltham, Mass.). To induce NaV1.7, cells were induced with tetracycline (0.1-1 μg/mL, IBI Scientific, Peosta, Iowa) the day before recording and plated onto 24-well plates. Cells were washed with DPBS (VWR, Radnor, Pa.), trypsinized and then triturated five times in 10 mL of growth media to break apart cell aggregates. For one 24-well plate, 2 mL of cell suspension was mixed with 23 mL of fresh growth media and 0.1-1 μg/mL tetracycline added. 1 ml of mixed media with cells was then added to each well of a 24-well plate, with a 12 mm coverslip already placed in the bottom of the well. Cells were then incubated in 37° C. and 10% CO2 overnight.
The intracellular solution contained the following (in mM) CsCl 135, NaCl 10, EGTA 10, HEPES 10, MgCl2 2, adjusted to pH 7.2 with CsOH. The external solution was a normal Ringer solution containing (in mM) NaCl 155, HEPES 10, glucose 10, KCl 3.5, CaCl2 1.5, MgCl2 1 adjusted to pH 7.4 with NaOH. CsCl is from Alfa Aesar, Haverhill, Mass. All other chemicals are from Sigma-Aldrich, St. Louis, Mo. In order to test the degree of internal block by test compounds the compounds were dissolved in internal solution at the indicated test concentration. […] In order to test the degree of external block by test compounds the compounds were dissolved in external solution at the indicated test concentration.
18-24 hours after cells were induced with tetracycline, coverslips were placed into a chamber filled with Normal Ringer solution at room temperature and the chamber placed on a microscope. Pipettes were pulled from borosilicate glass on a P97 puller (Sutter Instrument, Novato, Calif.) and polished with a MF-830 Microforge (Narishige International USA, Inc., Amityville, N.Y.) to have a resistance of 1.5-2.5 MΩ when filled with CsCl internal solution at room temperature. Healthy cells (those that are round and translucent with no visible blemishes) were chosen for seal formation. A seal was formed between the pipette and the cell, and a brief pulse of suction was used to “break in” and establish the whole-cell configuration. The membrane potential was held at −100 mV before the voltage protocol began. Only cells with series resistance between 1.5-5 MΩ were retained for analysis. The voltage protocol was as follows: Cells were held at −100 mV for 12 ms followed by a hyperpolarizing step to −105 mV for 12 ms to monitor the leak. Cells were then stepped back to −100 mV for 40 ms. Cells were then depolarized to −20 mV for 10 ms and then returned to −100 mV for 26 ms.
Once the recording was started, the voltage protocol was run at 30 second intervals for 5 minutes to get a stable baseline. This is followed by 5 Hz stimulation of the same voltage protocol run until the end of experiment. […] The test compound is added for 5 minutes before washing out with normal Ringer's solution. Currents were recorded using PatchMaster software with Heka EPC10 (HEKA Electronics, Lambrecht, Germany). Only cells with inward current amplitudes at −20 mV between 400 pA and 4 nA were accepted. In addition, cells having leak currents greater than 10% of their current amplitudes were discarded. […]

SMILES	inhibition at 3 µM [1]	inhibition at 10 µM [2]	inhibition at 10 µM [1]
CCC(=O)Oc1cccc(C)c1NC(=O)C[N+]1(Cc2ccccc2)CCCCCC1.[Br-] [Compound 80A, 1-benzyl-1-(2-((2-methyl-6-(propionyloxy)phenyl)amino)-2-oxoethyl) azepan-1-ium bromide]	> 90%	< 40%	
CCCc1cccc(C)c1NC(=O)C[N+]1(Cc2ccccc2)CCCCCC1.[Br-] [Compound 75A]	> 90%		
Cc1cccc(C(C)C)c1NC(=O)C[N+]1(Cc2ccccc2)CCCCCC1.[Br-] [Compound 74A]	70 to 90%		
Cc1cccc(-c2ccccc2)c1NC(=O)C[N+]1(Cc2ccccc2)CCCCCC1.[Br-] [Compound 76A]	> 90%	40 to 70%	
CCCCNc1ccc(NC(=O)C[N+]2(Cc3ccccc3)CCCCCC2)cc1.O=C[O-] [Compound 41A, 1-benzyl-1-(2-((4-(butylamino)phenyl)amino)-2-oxoethyl) azepan-1-ium formate]			70 to 95%
Cc1cccc(C)c1NC(=O)C[N+]1(Cc2ccccc2)CCCC(F)(F)C1.[Br-] (stereo not shown) [Compound 32A, 1-benzyl-1-(2-((2,6-dimethylphenyl)amino)-2-oxoethyl)-3,3-difluoropiperidin-1-ium bromide]	> 90%		
COC(=O)C1CC[N+](CC(=O)Nc2c(C)cccc2C)(Cc2ccccc2)CC1.[Br-] (stereo not shown) [Compound 44A, 1-benzyl-1-(2-((2,6-dimethylphenyl)amino)-2-oxoethyl)-4-(methoxycarbonyl) piperidin-1-ium bromide]	> 90%	< 40%	
[2H]c1c([2H])c([2H])c(C[N+]2(CC(=O)Nc3c(C)cccc3C)CCCCCC2)c([2H])c1[2H].[Cl-] [Compound 33A, 1-(2-((2,6-dimethylphenyl)amino)-2-oxoethyl)-1-((phenyl-d5)methyl) azepan-1-ium chloride]	> 90%	40 to 70%	
COC(=O)c1ccc(C[N+]2(CC(=O)Nc3c(C)cccc3C)CCCCC2)cc1.[Br-] [Compound 36A, 1-(2-((2,6-dimethylphenyl)amino)-2-oxoethyl)-1-(4-(methoxycarbonyl)benzyl) piperidin-1-ium bromide]	70 to 90%		
Cc1cccc(C)c1N1CCC([N+]2(Cc3ccccc3)CCCCC2)C1=O.[Br-] (stereo not shown) [Compound 89A, 1-benzyl-1-(1-(2,6-dimethylphenyl)-2-oxopyrrolidin-3-yl)piperidin-1-ium bromide]	70 to 90%		
COC(=O)c1cccc(C[N+]2(CC(=O)Nc3c(C)cccc3C)CCCCC2)c1.[Br-] [Compound 35A, 1-(2-((2,6-dimethylphenyl)amino)-2-oxoethyl)-1-(3-(methoxycarbonyl)benzyl) piperidin-1-ium bromide]	> 90%	< 40%	
CCCOC(=O)N1CCC[N+](CC(=O)Nc2c(C)cccc2C)(Cc2ccccc2)CC1.[Br-] (stereo not shown) [Compound 68A, 1-benzyl-1-(2-((2,6-dimethylphenyl)amino)-2-oxoethyl)-4-(propoxycarbonyl)-1,4-diazepan-1-ium bromide]	> 90%		
Cc1cccc(C)c1N1CCC([N+]2(Cc3ccccc3)CCCCCCC2)C1=O.[Br-] (stereo not shown) [Compound 90A]	> 90%	< 40%	
Cc1cccc(C)c1N1CCCC([N+]2(Cc3ccccc3)CCCC2)C1=O.[Br-] (stereo not shown) [Compound 91A, 1-benzyl-1-(1-(2,6-dimethylphenyl)-2-oxopiperidin-3-yl) pyrrolidin-1-ium bromide]	40 to 70%		
COC(=O)c1ccccc1C[N+]1(CC(=O)Nc2c(C)cccc2C)CCCCC1.[Br-] [Compound 37A, 1-(2-((2,6-dimethylphenyl)amino)-2-oxoethyl)-1-(2-(methoxycarbonyl)benzyl) piperidin-1-ium bromide]	70 to 90%		70 to 95%
Cc1cccc(C)c1NC(=O)C[N+]1(Cc2ccccc2)CCCC(C(=O)N2CCCC2)C1 (stereo not shown) [Compound 62A]	> 90%		
Cc1cccc(C)c1C(=O)OCC[N+]1(Cc2ccccc2)CCCCCC1.[Br-] [Compound 82A, 1-benzyl-1-(2-((2,6-dimethylbenzoyl)oxy)ethyl) azepan-1-ium bromide]	70 to 90%		
Cc1cccc(C#N)c1NC(=O)C[N+]1(Cc2ccccc2)CCCCCC1.[Br-] [Compound 72A]	> 90%		
CCOc1cccc(C)c1NC(=O)C[N+]1(Cc2ccccc2)CCCCCC1.[Br-] [Compound 77A]	70 to 90%		
Cc1cccc(C)c1NC(=O)C[N+]1(Cc2ccccc2)CCCC(C(=O)N2CCCCC2)C1 (stereo not shown) [Compound 63A]	> 90%		
COc1cccc(C)c1NC(=O)C[N+]1(Cc2ccccc2)CCCCCC1 [Compound 71A]	70 to 90%		

Second part, the compound after the results:

inhibition at 3 µM [1]	inhibition at 10 µM [2]	inhibition at 10 µM [1]	SMILES
70 to 90%			CCN(CC)C(=O)C1CCC[N+](CC(=O)Nc2c(C)cccc2C)(Cc2ccccc2)C1 (stereo not shown) [Compound 66A]
> 90%			Cc1cccc(C)c1NC(=O)C[N+]1(Cc2ccccc2)CCCC(C(=O)N(C)C)C1.[Br-] (stereo not shown) [Compound 65A]
> 90%			CCNC(=O)C1CCC[N+](CC(=O)Nc2c(C)cccc2C)(Cc2ccccc2)C1.[Br-] (stereo not shown) [Compound 54A, 1-benzyl-1-(2-((2,6-dimethylphenyl)amino)-2-oxoethyl)-3-(ethylcarbamoyl) piperidin-1-ium bromide]
> 90%	40 to 70%		CCCOC(=O)C1CCC[N+](CC(=O)Nc2c(C)cccc2C)(Cc2ccccc2)C1.[Br-] (stereo not shown) [Compound 47A, 1-benzyl-1-(2-((2,6-dimethylphenyl)amino)-2-oxoethyl)-3-(propoxycarbonyl) piperidin-1-ium bromide]
> 90%			CCC(=O)OC1CCC[N+](CC(=O)Nc2c(C)cccc2C)(Cc2ccccc2)C1.[Br-] (stereo not shown) [Compound 52A, 1-benzyl-1-(2-((2,6-dimethylphenyl)amino)-2-oxoethyl)-3-(propionyloxy) piperidin-1-ium bromide]
> 90%	40 to 70%		Cc1cccc(C)c1NC(=O)C[N+]1(Cc2ccccc2)CCCC(C(=O)OC(C)C)C1 (mixture of isomers) [Compound 46A, 1-benzyl-1-(2-((2,6-dimethylphenyl)amino)-2-oxoethyl)-3-(isopropoxycarbonyl) piperidin-1-ium trifluoroacetate salt]
70 to 90%			CCOC(=O)C1CCC[N+](CC(=O)Nc2c(C)cccc2C)(Cc2ccccc2)C1.[Br-] (stereo not shown) [Compound 45A, 1-benzyl-1-(2-((2,6-dimethylphenyl)amino)-2-oxoethyl)-3-(ethoxycarbonyl) piperidin-1-ium bromide]
40 to 70%			Cc1cccc(C)c1NC(=O)C[N+]1(Cc2ccccc2)CCCC(C(=O)NC(C)C)C1 (stereo not shown) [Compound 56A]
70 to 90%			CCCNC(=O)C1CCC[N+](CC(=O)Nc2c(C)cccc2C)(Cc2ccccc2)C1 (stereo not shown) [Compound 57A]
70 to 90%			CNC(=O)C1CCC[N+](CC(=O)Nc2c(C)cccc2C)(Cc2ccccc2)C1 (stereo not shown) [Compound 55A]
